Values joined by “and” are separate entries in the source; they are usually repeats but may differ in a detail not shown here. Equal entries are not always repeated.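 Method: 48-hour compound exposure of cells in 96-well plates, five concentrations, linear interpolation of endpoints. GI50 = concentration required for 50% inhibition of growth. TGI is the concentration that stops growth completely.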 Bounds are passed on as bounds.

We go through 8 compounds from PubChem BioAssay (NCI).

Common to all, as to assay: NCI anticancer screen, dose series, 48 h
In assay [1] the test system is SK-MEL-28 melanoma.
The subject of assay [2] is SK-MEL-5 melanoma.
The subject of assay [3] is RPMI-8226 leukemia.
Assay [4] has as its system MOLT-4 leukemia.
Assay [5] deals with CCRF-CEM leukemia.
The subject of assay [6] is HT29 colon.
Assay [7] deals with K-562 leukemia.
Assay [8] relates to NCI-H226 lung.
The subject of assay [9] is M14 melanoma.
Assay [10] relates to BT-549 breast.

For `O=C1NC2(CCCCC2)C(=O)N1CCN(CCCl)CCCl`, the GI50 is above 25 µM in assay [1]; above 25 µM in assay [2]; above 25 µM in assay [3]; 7.1 µM in assay [4]; 12.2 µM in assay [5]; above 25 µM in [6]. Besides, the GI50 in [7] and in assay [8] was above 25 µM in each case. Further, the TGI in [1] is above 114 µM; in assay [2] it was above 250 µM; in assay [3], above 250 µM; in assay [4] it was 22.5 µM and 196 µM; in assay [5], 25 µM and 212 µM; in [6], above 250 µM. For the same compound, the TGI was above 250 µM in assay [7], above 250 µM in [8], above 25 µM in assay [9] and above 25 µM in assay [10].
With `OC1CCCC2CCC[N-]C12.OC1CCCC2CCC[N-]C12.[O]=[V][OH]` (stereo not drawn), the GI50 is 21.2 µM in assay [1]; 5.57 µM in [2]; 2.54 µM in assay [3]; 1.23 µM in assay [4]; 0.493 µM in assay [5]; 4.72 µM in [6]. Besides, the GI50 was 1.93 µM in [7], 42 µM in assay [8], 2.92 µM in [9] and 6.3 µM in assay [10]. Besides, the TGI in assay [1] is above 100 µM; in assay [2], 46.2 µM; in [3], 25.8 µM; in assay [4], 10.6 µM; in [5], 12.2 µM; in assay [6], above 100 µM. In addition, the TGI is 14.4 µM in assay [7], above 100 µM in assay [8], 14.9 µM in [9] and 52.8 µM in assay [10].
On to `Cc1c2ccncc2c(C)c2c1sc1ccccc12`, for which the TGI in assay [1] worked out at 32.7 µM; in assay [2], 23.1 µM; in assay [3] it was 48 µM; in [4], 7.28 µM; in [5], 30.4 µM; in [6], 22.6 µM. The TGI in assay [7] amounted to 41.1 µM; in assay [8], 42.9 µM; in assay [9] it was 26.4 µM; in assay [10], 35.9 µM.
With `Nc1ncc(-c2ccc3ncnc(N4CCc5ccc(Cl)cc54)c3c2)cc1C(F)(F)F`, the GI50 in [1] is 2.01 µM; in assay [2], 5.08 µM; in assay [3] it was 2.82 µM; in assay [4], 1.63 µM; in assay [5], 3.87 µM; in [6] it was 1.83 µM. Besides, the GI50 in assay [7] was 3.98 µM; in [8] it was 3.04 µM; in assay [9] it was 4.63 µM; in assay [10], 1.82 µM. In addition, the TGI in assay [1] is 13.9 µM; in assay [2], 28.8 µM; in assay [3], above 100 µM; in assay [4], above 100 µM; in [5] it was above 100 µM; in assay [6], 16.2 µM. For the same compound, the TGI is above 100 µM in assay [7], 24.1 µM in [8], 26 µM in assay [9] and 17.2 µM in assay [10].
With `Cc1nc2sc3c(N)ncnc3c2c(C)c1C`, the GI50 in assay [1], in [2], in [3], in [4], in assay [5] and in assay [6] was above 25 µM throughout. Further, the GI50 in assay [7], in assay [8], in assay [9] and in [10] was above 25 µM each time. The TGI in assay [1], in assay [2], in assay [3], in [4], in assay [5] and in assay [6] was above 25 µM each time. Further, the TGI in assay [7], in assay [8], in assay [9] and in assay [10] was above 25 µM each time.
`CCOc1ccc(C(C[N+](=O)[O-])Sc2ccccc2N)cc1` (stereo not drawn): the GI50 was 4.03 µM in assay [1]; 6.34 µM in [2]; 2.23 µM in assay [3]; 3.73 µM in assay [4]; 3.67 µM in assay [5]; 2.07 µM in [6]. For the same compound, the GI50 was 2.97 µM in assay [7], 3.96 µM in [8], 6.6 µM in [9] and 2.6 µM in assay [10]. For the same compound, the TGI in assay [1] was found to be 14.8 µM; in assay [2], 19.4 µM; in [3], 5.32 µM; in assay [4], 16.9 µM; in assay [5] it was 18.9 µM; in assay [6], 4.19 µM. For the same compound, the TGI in assay [7] is 11.9 µM; in [8], 16.2 µM; in assay [9], 19.5 µM; in assay [10] it was 9.9 µM.
As for `O=C(Nc1cc(Cl)ccc1O)c1ccccc1Nc1ccnc(C(F)(F)F)c1`, the GI50 in assay [1] was 3 µM; in assay [2] it was 2.1 µM; in [3], 1.94 µM; in assay [4], 2.52 µM; in [5] it was 3.12 µM; in assay [6], 3.27 µM. The GI50 was 3.65 µM in assay [7], 2.11 µM in assay [8], 2.62 µM in [9] and 2.46 µM in assay [10]. The TGI stood at 12.2 µM in assay [1]; 4.27 µM in [2]; 7.43 µM in [3]; 6.94 µM in assay [4]; 9.63 µM in assay [5]; 11.5 µM in [6]. The TGI in [7] is above 100 µM; in [8] it was 9.17 µM; in assay [9], 8.71 µM; in assay [10], 7.95 µM.
As for `O=C1Cc2cc(CCn3cncn3)c(Cl)cc2N1`, the GI50 was 21 µM in [1]; 10.1 µM in assay [2]; above 100 µM in assay [3]; above 100 µM in [4]; 3.5 µM in [5]; above 100 µM in assay [6]. The GI50 was 7.68 µM in assay [7], above 100 µM in assay [8], 3.98 µM in [9] and 8.72 µM in assay [10]. The TGI in assay [1], in assay [2], in [3], in assay [4], in assay [5] and in assay [6] was above 100 µM in each case. Moreover, the TGI in assay [7], in assay [8], in assay [9] and in assay [10] was above 100 µM throughout.
